In data set [1] the target is T1, BCRP (Homo sapiens, UniProt Q9UNQ0).
T1 sequence (Q9UNQ0 1-655): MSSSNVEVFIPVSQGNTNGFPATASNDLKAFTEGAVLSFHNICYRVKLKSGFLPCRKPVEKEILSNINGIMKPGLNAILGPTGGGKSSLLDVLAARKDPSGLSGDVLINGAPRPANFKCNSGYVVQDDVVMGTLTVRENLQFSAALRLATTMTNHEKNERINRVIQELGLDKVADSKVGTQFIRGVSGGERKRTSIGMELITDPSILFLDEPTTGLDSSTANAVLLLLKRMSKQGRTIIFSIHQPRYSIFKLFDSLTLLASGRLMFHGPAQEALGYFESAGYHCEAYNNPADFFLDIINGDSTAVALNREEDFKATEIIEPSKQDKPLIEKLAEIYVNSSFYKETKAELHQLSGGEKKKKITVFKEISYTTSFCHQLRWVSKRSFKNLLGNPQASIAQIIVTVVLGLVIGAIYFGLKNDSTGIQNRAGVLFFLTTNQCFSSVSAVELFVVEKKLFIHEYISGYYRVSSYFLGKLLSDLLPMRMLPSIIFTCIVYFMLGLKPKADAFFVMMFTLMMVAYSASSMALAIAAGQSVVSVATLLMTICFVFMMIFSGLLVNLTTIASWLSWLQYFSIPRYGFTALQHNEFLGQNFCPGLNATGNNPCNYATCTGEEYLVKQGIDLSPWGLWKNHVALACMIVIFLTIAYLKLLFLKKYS
More on the design: expressed in transfected cells; host or cells: K562/BCRP cells (plasma membrane vesicles); method as in PMID 23293300, PMID 22331658. The following applies: cellular system; cited from earlier work.

Data set [2] addresses T2, P-gp (Homo sapiens, UniProt P08183). More on the design: expressed in transfected cells; host or cells: K562/MDR cells (plasma membrane vesicles); method as in PMID 23293300, PMID 22331658. The following applies: cellular system; cited from earlier work.
For data set [3], the target named is T2, P-gp.
Experimental: (§2) Then, they were mixed with [^3H]-labeled VCR (for P-gp) or E1S or MTX (for BCRP), and telaprevir at the indicated concentration in the reaction buffer (0.25 mol/L sucrose, 10 mmol/L HEPES-NaOH (pH 7.4), 10 mmol/L MgCl2, 10 mmol/L phosphocreatine, 100 μg/mL creatine phosphokinase, with or without 3 mmol/L adenosine triphosphate (ATP)) in a total volume of 50 μL. After 10 min of incubation at 25°C, the reaction mixture was stopped by the addition of ice-cold stop solution (0.25 mol/L sucrose, 10 mmol/L HEPES-NaOH (pH 7.4), 0.1 mol/L NaCl) and centrifuged at 18,000 × g for 10 min at 4°C. The pellets were solubilized by a liquid scintillation counter to measure their radioactivity levels. For kinetics analyses, the Michaelis–Menten equation and Lineweaver–Burk plots were applied to visualize the mechanism of transport inhibition, as v = Vmax[S]/([S] + (1 + [I]/Ki)Km), where [S] and [I] are concentrations of substrate and inhibitor respectively, and v is velocity of substrate uptake by transporter.
(§3) Figure 1 Effect of telaprevir on the intravesicular transport of vincristine sulfate (VCR) by P-gp. A. The ability to transport VCR in telaprevir-absent or -present conditions was determined by measuring the radioactivity taken up in membrane vesicles. B. Analyses of Lineweaver–Burk plots of inhibition of VCR uptake by P-gp. The VCR concentration was 100 nmol/L (A) and 50, 100, and 200 nmol/L (B), and of telaprevir was 0, 1, 10, and 100 μmol/L (A) and 20 μmol/L (B), respectively. Membrane vesicles from K562/MDR cells were mixed with each concentration of VCR, telaprevir, and 3 mmol/L of ATP in the incubation medium as described in the Methods section. VCR uptake is shown for parental K562 (white column for ATP-absent; gray column for ATP-present) and K562⁄MDR (dark-gray column for ATP-absent; black column for ATP-present) (A) and the inverse is shown for no inhibitor (open rhombus) and with telaprevir (black circle) (B). Results are means ± SD of triplicate (A) or quadruplicate (B) determinations.
The target of data set [4] is T2, P-gp. Briefly: biochemical.
Experimental: as §2, §3
Data set [5] deals with OATP1B. The following applies: cited from earlier work.
The test system of data set [6] is OCT1. The following applies: cited from earlier work.
The target of data set [7] is T1, BCRP. Briefly: biochemical. The following applies: for IC50: IC50 of telaprevir on BCRP-mediated transport; for Ki: Lineweaver-Burk plot, 50 μmol/L telaprevir.
Experimental: as §2
(§4) A. The ability to transport E1S at telaprevir-absent or -present conditions was determined by measuring the radioactivity of [^3H]-E1S taken up in membrane vesicles. A similar experiment was done for MTX. […] E1S concentration was 50 nmol/L (A) and 50, 100, and 200 nmol/L (B), and of telaprevir was 0, 1, 10, and 100 μmol/L (A) and 50 μmol/L (B), respectively. MTX concentration was 100 nmol/L (A), and 100, 200 and 400 nmol/L (B). Membrane vesicles of K562/BCRP cells were used.
Data set [8] relates to OATP1B1. The following applies: cited from earlier work.
The subject of data set [9] is MATE1. The following applies: cited from earlier work.
Data set [10] relates to OCT2. The following applies: cited from earlier work.
The target in data set [11] is T1, BCRP. Briefly: Photoaffinity labeling of BCRP with [125I]-IAAP. Format: binding. More on the design: expressed in transfected cells; host or cells: K562/BCRP cells (plasma membrane vesicles). The following applies: for BCRP band intensity (% of no-inhibitor): human, 10 min, pH 7.4. As for the experimental part: (§1) Photoaffinity labeling assay was done as described previously. In brief, plasma membrane fractions (45 μg protein/sample) were pre-incubated at 4°C for 5 min at the indicated concentration of telaprevir in 0.25 mol/L sucrose solution containing 10 mmol/L HEPES-NaOH (pH 7.4). Then, 5 nmol/L radioactive iodine-labeled IAAP, i.e., [^125I]-IAAP (2200 Ci/mmol), was added and the mixture incubated for an additional 10 min. Samples were kept on ice and illuminated with an ultraviolet lamp (B-100AP; UVP, Upland, CA, USA) at 365 nm for 30 min. These processes were carried out on ice. For the BCRP assay, the labeled BCRP protein was solubilized in a buffer (1% NP-40, 20 mmol/L Tris–HCl (pH 7.4), 150 mmol/L NaCl, 1 mmol/L ethylenediamine tetra-acetic acid (EDTA)) and immunoprecipitated with anti-BCRP antibody BXP-21 (Millipore, Billerica, MA, USA), then solubilized by Laemmli sodium dodecyl sulfate (SDS) buffer. For the P-gp assay, membrane fractions were solubilized directly by Laemmli SDS buffer. Samples were separated by sodium dodecyl sulfate-polyacrylamide gel electrophoresis (SDS-PAGE), and gels were dried. The binding of [^125I]-IAAP with P-gp and BCRP was quantified using a FLA7000 Bioimage Analyzer (Fuji Film, Tokyo, Japan) and Multi-Gauge software (Fuji Film).
Figure 3 Effect of telaprevir on photoaffinity labeling of P-gp and BCRP with [^125I]-IAAP. K562/MDR- or K562/BCRP-vesicles were mixed with the indicated concentrations of telaprevir for 5 min. Vesicles were pre-incubated with 5 nmol/L [^125I]-IAAP (2200 Ci/mmol) for 10 min, and then illuminated with a UV lamp (365 nm) for 30 min. IAAP-labeled protein was solubilized by Laemmli SDS buffer directly (for the P-gp assay) or after immunoprecipitation (for the BCRP assay), and subjected to SDS-PAGE. Signals were visualized and analyzed with a FLA7000 system. The black arrowheads are P-gp or BCRP. […] The binding of [^125I]-IAAP with P-gp and BCRP was calculated from standard curve analysis using a FLA7000 Bioimage Analyzer (Fuji Film, Tokyo, Japan) and Multi-Gauge software (Fuji Film). […] I copied these numbers as results for the inhibitors, although gels and blots are otherwise left out. / The value 0 under the 'K562 vesicle' control lane in panels A and B is left out because it belongs to no substance.

Data set [12] concerns the target T1, BCRP.
Experimental: as §2, §4
The target in data set [13] is T2, P-gp. Briefly: Photoaffinity labeling of P-gp with [125I]-IAAP. Format: binding. More on the design: expressed in transfected cells; host or cells: K562/MDR cells (plasma membrane vesicles). The following applies: for P-gp band intensity (% of no-inhibitor): human, 10 min, pH 7.4. As for the experimental part: as §1
Figure 3 Effect of telaprevir on photoaffinity labeling of P-gp and BCRP with [^125I]-IAAP. K562/MDR- or K562/BCRP-vesicles were mixed with the indicated concentrations of telaprevir for 5 min. Vesicles were pre-incubated with 5 nmol/L [^125I]-IAAP (2200 Ci/mmol) for 10 min, and then illuminated with a UV lamp (365 nm) for 30 min. IAAP-labeled protein was solubilized by Laemmli SDS buffer directly (for the P-gp assay) or after immunoprecipitation (for the BCRP assay), and subjected to SDS-PAGE. Signals were visualized and analyzed with a FLA7000 system. The black arrowheads are P-gp or BCRP. […] The binding of [^125I]-IAAP with P-gp and BCRP was calculated from standard curve analysis using a FLA7000 Bioimage Analyzer (Fuji Film, Tokyo, Japan) and Multi-Gauge software (Fuji Film).

Several values for one entry are separate records, joined by “and”; a condition that tells them apart may be missing. Equal values may be shown once. Read-outs that look alike come from different tables or passages of the source.

For orientation: IC50 means the concentration that inhibits the measured activity by half. The Ki is the equilibrium dissociation constant of an inhibitor or competing ligand from its target.

T2 sequence (P08183 whole entry): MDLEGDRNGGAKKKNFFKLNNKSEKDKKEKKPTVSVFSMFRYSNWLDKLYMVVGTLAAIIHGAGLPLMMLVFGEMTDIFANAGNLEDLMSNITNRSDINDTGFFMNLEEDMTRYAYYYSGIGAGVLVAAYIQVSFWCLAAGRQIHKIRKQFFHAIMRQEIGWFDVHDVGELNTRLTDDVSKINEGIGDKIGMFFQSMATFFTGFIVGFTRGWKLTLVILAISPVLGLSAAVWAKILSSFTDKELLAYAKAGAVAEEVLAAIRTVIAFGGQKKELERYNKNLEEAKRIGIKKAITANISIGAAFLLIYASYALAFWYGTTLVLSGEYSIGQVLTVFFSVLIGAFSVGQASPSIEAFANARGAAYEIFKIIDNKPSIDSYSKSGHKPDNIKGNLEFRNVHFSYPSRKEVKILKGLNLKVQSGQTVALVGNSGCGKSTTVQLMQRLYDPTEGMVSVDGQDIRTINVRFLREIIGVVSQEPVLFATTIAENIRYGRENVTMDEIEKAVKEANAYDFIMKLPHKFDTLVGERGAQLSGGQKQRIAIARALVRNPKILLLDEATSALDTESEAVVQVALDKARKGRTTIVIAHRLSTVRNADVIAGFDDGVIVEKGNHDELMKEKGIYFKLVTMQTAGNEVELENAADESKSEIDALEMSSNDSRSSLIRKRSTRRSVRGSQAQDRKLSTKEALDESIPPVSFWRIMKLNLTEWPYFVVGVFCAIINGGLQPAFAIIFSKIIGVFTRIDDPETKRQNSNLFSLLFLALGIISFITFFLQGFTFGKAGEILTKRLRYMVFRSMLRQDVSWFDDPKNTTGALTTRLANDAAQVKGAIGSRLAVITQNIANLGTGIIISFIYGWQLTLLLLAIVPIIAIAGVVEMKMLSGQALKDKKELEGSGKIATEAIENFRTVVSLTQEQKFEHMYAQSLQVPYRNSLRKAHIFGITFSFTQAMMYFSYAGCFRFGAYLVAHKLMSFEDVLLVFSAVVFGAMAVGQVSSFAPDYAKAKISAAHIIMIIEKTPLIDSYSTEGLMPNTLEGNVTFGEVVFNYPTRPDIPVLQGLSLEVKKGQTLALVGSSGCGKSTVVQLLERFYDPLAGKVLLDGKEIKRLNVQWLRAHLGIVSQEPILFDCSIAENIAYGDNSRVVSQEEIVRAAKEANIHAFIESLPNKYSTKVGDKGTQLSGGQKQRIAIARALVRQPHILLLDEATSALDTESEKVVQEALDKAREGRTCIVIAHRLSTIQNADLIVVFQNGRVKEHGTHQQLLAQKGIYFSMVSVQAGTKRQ

With `CC(C)(C)NC(=O)N[C@H](C(=O)N1C[C@H]2[C@@H]([C@H]1C(=O)NC(CC1CCC1)C(=O)C(N)=O)C2(C)C)C(C)(C)C` (stereo partly drawn) [boceprevir], the IC50 in [1] was ~80 µM. For the same molecule, the “Inhibitory effect on P-gp” value in data set [2] was “very low”.

As for `CCC[C@H](NC(=O)[C@@H]1[C@H]2CCC[C@H]2CN1C(=O)[C@@H](NC(=O)[C@@H](NC(=O)c1cnccn1)C1CCCCC1)C(C)(C)C)C(=O)C(=O)NC1CC1` [telaprevir], the Inhibitory mode entry in data set [3] and in data set [12] was “competitive” throughout. The Vmax in [3] (human, 10 min, 20 μmol/L, pH 7.4) is on record as 7.1 pmol/mg/10 min. Moreover, the Ki was 4.8 µM in [4]; 44 µM and 44.4 µM in [7] (BCRP-mediated E1S transport); 94.8 µM in data set [7] (BCRP-mediated MTX transport). The half-maximal inhibitory concentration (IC50) was ~7 µM and 7 µM in data set [4] (IC50 of telaprevir on P-gp-mediated transport, substrate VCR, K562/MDR vesicles); 36.8 µM in data set [5]; 20.7 µM in [6]; 30 µM in data set [7] (substrate E1S, K562/BCRP vesicles); 31 µM in [7] (substrate MTX, K562/BCRP vesicles); ~30 µM in [7] (substrate not specified). In addition, the IC50 is 2.2 µM in data set [8]; 23 µM in [9]; 6.4 µM in data set [10]; > 80 µM in data set [11]; 16.5 µM in [13] (IC50 on [125I]-IAAP binding with P-gp, K562/MDR vesicles, 5 nmol/L [125I]-IAAP). Also, the “BCRP band intensity (% of no-inhibitor)” value in data set [11] (5 μmol/L) is given as 95 % of no-inhibitor; in [11] (20 μmol/L) it was 72 % of no-inhibitor; in data set [11] (80 μmol/L) it was 58 % of no-inhibitor. Further, the “P-gp band intensity (% of no-inhibitor)” value is 85 % of no-inhibitor in data set [13] (2.5 μmol/L); 71 % of no-inhibitor in data set [13] (5 μmol/L); 64 % of no-inhibitor in data set [13] (10 μmol/L); 47 % of no-inhibitor in data set [13] (20 μmol/L); 30 % of no-inhibitor in data set [13] (40 μmol/L).

The values above are taken from publication PMC4226252, “Biochemical interaction of anti-HCV telaprevir with the ABC transporters P-glycoprotein and breast cancer resistance protein” (BMC Research Notes, 2013).
